According to patent EP2604596A1, “Polymorphs of imatinib” (priority 2011, dated 2013):

Test: Non-hygroscopicity test (storage in stability chambers, water content)
Format: physicochemical
Settings: mesylate; for Water Content after 3 months (%): 40°C at humidity of 75%, for 3 months; for Initial Water Content (%): before storage
Description: In the present invention, samples of obtained crystalline forms are stored […] in stability chambers under following conditions of 40°C and humidity of 75%, for 3 months to support non-hygroscopic nature of novel forms of imatinib mesylate.
Non-hygroscopicity test results are listed below in table 1.

SMILES | Water Content after 3 months (%) | Initial Water Content (%)
CS(=O)(=O)O.Cc1ccc(NC(=O)c2ccc(CN3CCN(C)CC3)cc2)cc1Nc1nccc(-c2cccnc2)n1 [Polymorph Y sample, 4-[(4-Methyl-1-piperazinyl)methyl]-N-[4-methyl-3-[[4-(3-pyridinyl)-2-pyrimidinyl]amino]phenyl]-benzamide mesylate] | 0.50 | 0.40
CS(=O)(=O)O.Cc1ccc(NC(=O)c2ccc(CN3CCN(C)CC3)cc2)cc1Nc1nccc(-c2cccnc2)n1 [Polymorph P sample, 4-[(4-Methyl-1-piperazinyl)methyl]-N-[4-methyl-3-[[4-(3-pyridinyl)-2-pyrimidinyl]amino]phenyl]-benzamide mesylate] | 0.50 | 0.42
CS(=O)(=O)O.Cc1ccc(NC(=O)c2ccc(CN3CCN(C)CC3)cc2)cc1Nc1nccc(-c2cccnc2)n1 [Polymorph M sample, 4-[(4-Methyl-1-piperazinyl)methyl]-N-[4-methyl-3-[[4-(3-pyridinyl)-2-pyrimidinyl]amino]phenyl]-benzamide mesylate] | 0.48 | 0.38
CS(=O)(=O)O.Cc1ccc(NC(=O)c2ccc(CN3CCN(C)CC3)cc2)cc1Nc1nccc(-c2cccnc2)n1 [Polymorph β reference sample, 4-[(4-Methyl-1-piperazinyl)methyl]-N-[4-methyl-3-[[4-(3-pyridinyl)-2-pyrimidinyl]amino]phenyl]-benzamide mesylate, reference compound] | 0.60 | 0.34
CS(=O)(=O)O.Cc1ccc(NC(=O)c2ccc(CN3CCN(C)CC3)cc2)cc1Nc1nccc(-c2cccnc2)n1 [Polymorph B sample, 4-[(4-Methyl-1-piperazinyl)methyl]-N-[4-methyl-3-[[4-(3-pyridinyl)-2-pyrimidinyl]amino]phenyl]-benzamide mesylate] | 0.48 | 0.37
